Results as given in article PMC5578373, “Inhibitory Kappa B Kinase α (IKKα) Inhibitors That Recapitulate Their Selectivity in Cells against Isoform-Related Biomarkers” (Journal of Medicinal Chemistry, 2017).
Entries after “also recorded” stand apart in the source; their conditions may differ.

Legend:
[1] = target: T1, PKCη(h) (Homo sapiens, UniProt P24723); experiment: Millipore Kinase Profiler, single concentration; type: biochemical; conditions: duplicate assay points, read-out: % residual activity
T1 construct: purchased Millipore KinaseProfiler
Source text: (§1) Kinase profiling of compound 48 was outsourced to Millipore, specifically the Kinase Profiler Customer Service for single concentration studies using duplicate assay points.

[2] = target: T2, CaMKIV(h) (Homo sapiens, UniProt Q16566); experiment: Millipore Kinase Profiler, single concentration; type: biochemical; conditions: duplicate assay points, read-out: % residual activity
T2 construct: purchased Millipore KinaseProfiler
Source text: as §1

[3] = target: T3, PRK2(h) (Homo sapiens, UniProt Q16513); experiment: Millipore Kinase Profiler, single concentration; type: biochemical; conditions: duplicate assay points, read-out: % residual activity
T3 construct: purchased Millipore KinaseProfiler
Source text: as §1

[4] = target: T4, MST2(h) (Homo sapiens, UniProt Q13188); experiment: Millipore Kinase Profiler, single concentration; type: biochemical; conditions: duplicate assay points, read-out: % residual activity
T4 construct: purchased Millipore KinaseProfiler
Source text: as §1

[5] = target: T5, JAK2(h) (Homo sapiens, UniProt O60674); experiment: Millipore Kinase Profiler, single concentration; type: biochemical; conditions: duplicate assay points, read-out: % residual activity
T5 construct: purchased Millipore KinaseProfiler
Source text: as §1

[6] = target: T6, CK1δ(h) (Homo sapiens, UniProt P48730); experiment: Millipore Kinase Profiler, single concentration; type: biochemical; conditions: duplicate assay points, read-out: % residual activity
T6 construct: purchased Millipore KinaseProfiler
Source text: as §1

[7] = target: T7, PKCμ(h) (Homo sapiens, UniProt Q15139); experiment: Millipore Kinase Profiler, single concentration; type: biochemical; conditions: duplicate assay points, read-out: % residual activity
T7 construct: purchased Millipore KinaseProfiler
Source text: as §1

[8] = target: T8, FGFR3(h) (Homo sapiens, UniProt P22607); experiment: Millipore Kinase Profiler, single concentration; type: biochemical; conditions: duplicate assay points, read-out: % residual activity
T8 construct: purchased Millipore KinaseProfiler
Source text: as §1

[9] = target: T9, IR(h) (Homo sapiens, UniProt P06213); experiment: Millipore Kinase Profiler, single concentration; type: biochemical; conditions: duplicate assay points, read-out: % residual activity
T9 construct: purchased Millipore KinaseProfiler
Source text: as §1

[10] = target: T10, CaMKI(h) (Homo sapiens, UniProt Q14012); experiment: Millipore Kinase Profiler, single concentration; type: biochemical; conditions: duplicate assay points, read-out: % residual activity
T10 construct: purchased Millipore KinaseProfiler
Source text: as §1

[11] = target: T11, HIPK1(h) (Homo sapiens, UniProt Q86Z02); experiment: Millipore Kinase Profiler, single concentration; type: biochemical; conditions: duplicate assay points, read-out: % residual activity
T11 construct: purchased Millipore KinaseProfiler
Source text: as §1

[12] = target: T12, Abl(h) (Homo sapiens, UniProt P00519); experiment: Millipore Kinase Profiler, single concentration; type: biochemical; conditions: duplicate assay points, read-out: % residual activity
T12 construct: purchased Millipore KinaseProfiler
Source text: as §1

[13] = target: T13, CHK1(h) (Homo sapiens, UniProt O14757); experiment: Millipore Kinase Profiler, single concentration; type: biochemical; conditions: duplicate assay points, read-out: % residual activity
T13 construct: purchased Millipore KinaseProfiler
Source text: as §1

[14] = target: T14, EphB4(h) (Homo sapiens, UniProt P54760); experiment: Millipore Kinase Profiler, single concentration; type: biochemical; conditions: duplicate assay points, read-out: % residual activity
T14 construct: purchased Millipore KinaseProfiler
Source text: as §1

[15] = target: T15, MEK1(h) (Homo sapiens, UniProt Q02750); experiment: Millipore Kinase Profiler, single concentration; type: biochemical; conditions: duplicate assay points, read-out: % residual activity
T15 construct: purchased Millipore KinaseProfiler
Source text: as §1

[16] = target: T16, cSRC(h) (Homo sapiens, UniProt P12931); experiment: Millipore Kinase Profiler, single concentration; type: biochemical; conditions: duplicate assay points, read-out: % residual activity
T16 construct: purchased Millipore KinaseProfiler
Source text: as §1

[17] = target: T17, c-RAF(h) (Homo sapiens, UniProt P04049); experiment: Millipore Kinase Profiler, single concentration; type: biochemical; conditions: duplicate assay points, read-out: % residual activity
T17 construct: purchased Millipore KinaseProfiler
Source text: as §1

[18] = target: T18, PDGFRβ(h) (Homo sapiens, UniProt P09619); experiment: Millipore Kinase Profiler, single concentration; type: biochemical; conditions: duplicate assay points, read-out: % residual activity
T18 construct: purchased Millipore KinaseProfiler
Source text: as §1

[19] = target: T19, TrkB(h) (Homo sapiens, UniProt Q16620); experiment: Millipore Kinase Profiler, single concentration; type: biochemical; conditions: duplicate assay points, read-out: % residual activity
T19 construct: purchased Millipore KinaseProfiler
Source text: as §1

[20] = target: T20, DAPK1(h) (Homo sapiens, UniProt P53355); experiment: Millipore Kinase Profiler, single concentration; type: biochemical; conditions: duplicate assay points, read-out: % residual activity
T20 construct: purchased Millipore KinaseProfiler
Source text: as §1

[21] = target: T21, GSK3β(h) (Homo sapiens, UniProt P49841); experiment: Millipore Kinase Profiler, single concentration; type: biochemical; conditions: duplicate assay points, read-out: % residual activity
T21 construct: purchased Millipore KinaseProfiler
Source text: as §1

[22] = target: T22, PAK2(h) (Homo sapiens, UniProt Q13177); experiment: Millipore Kinase Profiler, single concentration; type: biochemical; conditions: duplicate assay points, read-out: % residual activity
T22 construct: purchased Millipore KinaseProfiler
Source text: as §1

[23] = target: T23, PKBα(h) (Homo sapiens, UniProt P31749); experiment: Millipore Kinase Profiler, single concentration; type: biochemical; conditions: duplicate assay points, read-out: % residual activity
T23 construct: purchased Millipore KinaseProfiler
Source text: as §1

[24] = target: T24, CK2(h) (Homo sapiens, UniProt P68400); experiment: Millipore Kinase Profiler, single concentration; type: biochemical; conditions: duplicate assay points, read-out: % residual activity
T24 construct: purchased Millipore KinaseProfiler
Source text: as §1

[25] = target: T25, PKCα(h) (Homo sapiens, UniProt P17252); experiment: Millipore Kinase Profiler, single concentration; type: biochemical; conditions: duplicate assay points, read-out: % residual activity
T25 construct: purchased Millipore KinaseProfiler
Source text: as §1

[26] = target: T26, AMPKα1(h) (Homo sapiens, UniProt Q13131); experiment: Millipore Kinase Profiler, single concentration; type: biochemical; conditions: duplicate assay points, read-out: % residual activity
T26 construct: purchased Millipore KinaseProfiler
Source text: as §1

[27] = target: T27, MAPKAP-K2(h) (Homo sapiens, UniProt P49137); experiment: Millipore Kinase Profiler, single concentration; type: biochemical; conditions: duplicate assay points, read-out: % residual activity
T27 construct: purchased Millipore KinaseProfiler
Source text: as §1

[28] = target: T28, LIMK1(h) (Homo sapiens, UniProt P53667); experiment: Millipore Kinase Profiler, single concentration; type: biochemical; conditions: duplicate assay points, read-out: % residual activity
T28 construct: purchased Millipore KinaseProfiler
Source text: as §1

[29] = tested on: IKKβ-dependent IκBα degradation in U2OS cells; experiment: TNFα-induced IκBα degradation in U2OS cells, Western blot; type: cell-based, human; conditions: highest concentration 100 μM, TNF-α (10 ng/mL) 30 min
Experimental: Two IKKβ-dependent readouts were selected to assess selectivity over IKKβ. First, TNFα stimulates IκBα degradation through activation of IKKβ and if IKKβ is inhibited, then a band corresponding to the IκBα protein should be evident by Western analysis. Second, IKKβ phosphorylates p65 on Ser536, which can also be assessed by Western blot analysis. Only at the highest concentration (100 μM) of 48 was IκBα degradation and p65 (Ser536) phosphorylation inhibited (Figure 9b). Even at this high concentration, these effects were not apparent following pretreatment with 47 (Figure 10b).
Figure 9 Effect of compound 48 on (a) FCS-stimulated noncanonical and (b) TNF-α-induced canonical NF-kB activation in U2OS cells. […] Whole cell lysate were prepared, separated by SDS-PAGE, and assessed for (a) inhibition of p100 phosphorylation (Ser866/870) and (b) IkB-α and p-p65 (Ser536) status. […]
Figure 10 Effect of compound 47 on (a) FCS-stimulated noncanonical and (b) TNF-α-induced canonical NF-kB activation in U2OS cells. […] Whole cell lysate were prepared, separated by SDS-PAGE, and assessed for (a) inhibition of p100 phosphorylation (Ser866/870) and (b) IkB-α and p-p65 (Ser536) status. […]
Whole cell lysates were prepared from U2OS and status of IκBα, p65, p-p65 (Ser536), and p-p100 (Ser 866/870) assessed by Western blotting as described in Mackenzie et al. (2007).[46]

T26 sequence (Q13131 whole entry): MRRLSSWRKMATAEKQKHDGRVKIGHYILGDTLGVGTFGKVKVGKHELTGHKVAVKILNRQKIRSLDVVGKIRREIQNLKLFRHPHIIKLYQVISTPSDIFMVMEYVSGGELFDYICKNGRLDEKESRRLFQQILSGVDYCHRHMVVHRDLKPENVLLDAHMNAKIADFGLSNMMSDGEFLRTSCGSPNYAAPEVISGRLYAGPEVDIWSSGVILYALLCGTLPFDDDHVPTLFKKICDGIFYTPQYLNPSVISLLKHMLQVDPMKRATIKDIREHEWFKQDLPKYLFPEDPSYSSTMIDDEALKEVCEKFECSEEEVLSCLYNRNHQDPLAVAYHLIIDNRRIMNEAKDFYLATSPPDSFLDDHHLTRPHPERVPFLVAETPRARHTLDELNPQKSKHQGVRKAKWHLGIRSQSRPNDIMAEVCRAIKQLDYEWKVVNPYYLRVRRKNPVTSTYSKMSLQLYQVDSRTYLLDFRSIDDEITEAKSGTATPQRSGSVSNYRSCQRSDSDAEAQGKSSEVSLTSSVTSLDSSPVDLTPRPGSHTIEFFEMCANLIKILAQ
T26 sequence (Q9Y478 whole entry partner): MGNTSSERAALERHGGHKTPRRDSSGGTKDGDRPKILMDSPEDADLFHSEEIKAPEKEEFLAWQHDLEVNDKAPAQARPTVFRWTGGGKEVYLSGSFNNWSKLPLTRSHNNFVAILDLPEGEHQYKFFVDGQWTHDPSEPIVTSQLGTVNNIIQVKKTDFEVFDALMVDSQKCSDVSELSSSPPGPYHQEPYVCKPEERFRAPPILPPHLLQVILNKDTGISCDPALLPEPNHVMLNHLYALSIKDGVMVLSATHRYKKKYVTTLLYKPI
T26 sequence (P54619 whole entry partner): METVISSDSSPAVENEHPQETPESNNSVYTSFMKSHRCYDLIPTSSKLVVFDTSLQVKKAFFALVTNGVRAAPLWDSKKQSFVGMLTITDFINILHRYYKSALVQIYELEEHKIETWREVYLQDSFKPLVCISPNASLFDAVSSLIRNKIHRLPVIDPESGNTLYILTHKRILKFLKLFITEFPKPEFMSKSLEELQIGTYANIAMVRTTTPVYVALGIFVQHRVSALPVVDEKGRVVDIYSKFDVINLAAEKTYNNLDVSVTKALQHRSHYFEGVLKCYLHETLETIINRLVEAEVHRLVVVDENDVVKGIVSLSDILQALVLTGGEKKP
T5 sequence (O60674 whole entry): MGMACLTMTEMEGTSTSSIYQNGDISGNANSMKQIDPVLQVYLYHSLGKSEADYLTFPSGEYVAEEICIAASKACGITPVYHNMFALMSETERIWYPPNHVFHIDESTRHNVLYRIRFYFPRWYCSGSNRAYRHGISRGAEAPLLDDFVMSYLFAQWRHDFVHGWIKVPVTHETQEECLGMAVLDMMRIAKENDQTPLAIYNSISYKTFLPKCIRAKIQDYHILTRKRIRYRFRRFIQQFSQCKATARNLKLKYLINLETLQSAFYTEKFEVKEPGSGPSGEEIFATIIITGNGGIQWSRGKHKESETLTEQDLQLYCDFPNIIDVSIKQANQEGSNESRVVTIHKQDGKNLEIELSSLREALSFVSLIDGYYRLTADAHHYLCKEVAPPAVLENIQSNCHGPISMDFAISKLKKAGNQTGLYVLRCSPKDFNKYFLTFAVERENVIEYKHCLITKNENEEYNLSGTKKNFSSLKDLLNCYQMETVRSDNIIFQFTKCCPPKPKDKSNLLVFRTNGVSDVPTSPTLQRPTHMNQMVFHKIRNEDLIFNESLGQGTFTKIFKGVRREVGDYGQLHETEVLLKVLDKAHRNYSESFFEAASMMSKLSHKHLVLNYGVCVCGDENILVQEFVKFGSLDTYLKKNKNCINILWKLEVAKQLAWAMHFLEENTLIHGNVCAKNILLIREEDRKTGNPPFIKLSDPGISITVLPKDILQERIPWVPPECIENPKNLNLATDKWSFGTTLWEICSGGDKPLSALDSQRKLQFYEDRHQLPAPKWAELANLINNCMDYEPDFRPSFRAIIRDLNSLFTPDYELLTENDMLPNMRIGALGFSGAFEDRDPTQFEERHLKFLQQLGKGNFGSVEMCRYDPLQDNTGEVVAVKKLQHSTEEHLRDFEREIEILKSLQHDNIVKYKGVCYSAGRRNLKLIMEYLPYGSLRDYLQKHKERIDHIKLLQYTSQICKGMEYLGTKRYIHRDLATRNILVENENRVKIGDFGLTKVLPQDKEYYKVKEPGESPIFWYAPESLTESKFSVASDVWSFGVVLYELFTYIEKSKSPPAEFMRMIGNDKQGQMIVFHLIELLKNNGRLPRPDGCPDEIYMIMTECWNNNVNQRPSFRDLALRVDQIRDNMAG
T10 sequence (Q14012 whole entry): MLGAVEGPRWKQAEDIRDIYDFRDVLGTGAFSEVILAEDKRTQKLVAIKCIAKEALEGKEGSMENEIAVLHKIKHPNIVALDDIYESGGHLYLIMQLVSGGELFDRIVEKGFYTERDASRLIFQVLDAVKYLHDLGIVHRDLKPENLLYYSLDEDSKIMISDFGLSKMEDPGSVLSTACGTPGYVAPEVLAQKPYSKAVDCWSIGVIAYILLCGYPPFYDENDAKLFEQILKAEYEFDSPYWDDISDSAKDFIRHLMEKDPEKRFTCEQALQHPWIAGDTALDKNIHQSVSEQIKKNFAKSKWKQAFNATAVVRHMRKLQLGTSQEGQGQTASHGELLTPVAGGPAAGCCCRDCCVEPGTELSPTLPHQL
T18 sequence (P09619 33-1106): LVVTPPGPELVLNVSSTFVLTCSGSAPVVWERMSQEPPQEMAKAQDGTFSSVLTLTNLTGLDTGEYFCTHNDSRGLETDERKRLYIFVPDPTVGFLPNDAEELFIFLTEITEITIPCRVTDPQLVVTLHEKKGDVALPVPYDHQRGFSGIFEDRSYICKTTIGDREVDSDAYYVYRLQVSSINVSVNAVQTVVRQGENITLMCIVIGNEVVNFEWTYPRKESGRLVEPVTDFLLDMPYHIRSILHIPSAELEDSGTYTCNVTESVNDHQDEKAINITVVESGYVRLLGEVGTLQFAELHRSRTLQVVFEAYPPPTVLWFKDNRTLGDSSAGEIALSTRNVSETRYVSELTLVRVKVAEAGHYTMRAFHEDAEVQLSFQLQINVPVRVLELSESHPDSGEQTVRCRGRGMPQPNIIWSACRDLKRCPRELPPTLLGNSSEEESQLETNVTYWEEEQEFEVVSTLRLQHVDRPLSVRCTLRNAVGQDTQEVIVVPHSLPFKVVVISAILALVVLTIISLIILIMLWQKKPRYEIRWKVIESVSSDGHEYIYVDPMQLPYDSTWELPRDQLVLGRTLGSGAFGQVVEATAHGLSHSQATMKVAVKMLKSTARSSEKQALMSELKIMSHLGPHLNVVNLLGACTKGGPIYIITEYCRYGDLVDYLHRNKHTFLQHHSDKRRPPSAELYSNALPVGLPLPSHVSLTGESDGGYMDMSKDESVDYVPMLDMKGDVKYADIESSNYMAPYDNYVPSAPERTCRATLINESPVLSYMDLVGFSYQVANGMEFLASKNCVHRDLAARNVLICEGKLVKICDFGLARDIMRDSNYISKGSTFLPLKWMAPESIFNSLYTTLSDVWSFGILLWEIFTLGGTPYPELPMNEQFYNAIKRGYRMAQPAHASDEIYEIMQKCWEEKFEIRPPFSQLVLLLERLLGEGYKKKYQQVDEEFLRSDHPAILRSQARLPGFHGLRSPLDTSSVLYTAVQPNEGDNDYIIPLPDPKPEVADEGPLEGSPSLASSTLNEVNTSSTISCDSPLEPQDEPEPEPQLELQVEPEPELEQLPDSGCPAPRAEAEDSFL
T15 sequence (Q02750 whole entry): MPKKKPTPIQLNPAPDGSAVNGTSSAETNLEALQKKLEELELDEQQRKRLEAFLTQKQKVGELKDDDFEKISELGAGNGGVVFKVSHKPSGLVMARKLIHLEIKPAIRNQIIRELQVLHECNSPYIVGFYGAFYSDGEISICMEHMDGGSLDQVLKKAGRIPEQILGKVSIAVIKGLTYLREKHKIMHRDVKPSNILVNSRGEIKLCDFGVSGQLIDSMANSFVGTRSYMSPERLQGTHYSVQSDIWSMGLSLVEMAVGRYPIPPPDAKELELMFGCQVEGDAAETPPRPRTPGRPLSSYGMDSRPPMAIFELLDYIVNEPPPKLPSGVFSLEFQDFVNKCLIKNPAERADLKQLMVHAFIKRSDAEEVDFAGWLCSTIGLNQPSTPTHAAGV
T19 sequence (Q16620 32-822): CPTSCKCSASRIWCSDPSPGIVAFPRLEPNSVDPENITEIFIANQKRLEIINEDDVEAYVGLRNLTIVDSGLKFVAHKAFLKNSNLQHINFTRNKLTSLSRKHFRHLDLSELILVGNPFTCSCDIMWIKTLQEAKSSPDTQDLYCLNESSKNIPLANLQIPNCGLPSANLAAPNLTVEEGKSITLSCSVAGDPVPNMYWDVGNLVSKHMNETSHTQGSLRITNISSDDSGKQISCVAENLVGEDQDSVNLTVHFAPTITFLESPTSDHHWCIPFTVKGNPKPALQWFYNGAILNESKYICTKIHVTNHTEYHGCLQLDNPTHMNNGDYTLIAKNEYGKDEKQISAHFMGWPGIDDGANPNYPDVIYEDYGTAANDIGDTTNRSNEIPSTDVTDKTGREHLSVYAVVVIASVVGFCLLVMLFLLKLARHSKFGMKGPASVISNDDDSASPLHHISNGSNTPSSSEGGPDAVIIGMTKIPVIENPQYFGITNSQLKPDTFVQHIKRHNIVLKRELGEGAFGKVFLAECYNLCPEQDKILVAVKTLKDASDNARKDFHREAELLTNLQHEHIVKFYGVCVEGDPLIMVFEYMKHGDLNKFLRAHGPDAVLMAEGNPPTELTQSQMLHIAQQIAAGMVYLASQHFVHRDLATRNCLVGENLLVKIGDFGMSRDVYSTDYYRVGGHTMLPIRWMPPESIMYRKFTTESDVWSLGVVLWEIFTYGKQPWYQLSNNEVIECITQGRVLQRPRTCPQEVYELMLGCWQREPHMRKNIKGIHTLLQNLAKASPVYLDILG

`N#Cc1c[nH]c2nc(N)nc(-c3ccc(S(N)(=O)=O)cc3)c12` [Compound 48, 4-(2-Amino-5-cyano-7H-pyrrolo[2,3-d]pyrimidin-4-yl)benzenesulfonamide] showed a remaining activity at 10 µM [1] of 53%, a remaining activity at 10 µM [2] of 37% and a remaining activity at 10 µM [3] of 31%. For the same compound, the remaining activity at 10 µM [4] was 59%, the remaining activity at 10 µM [5] was 29% and the remaining activity at 10 µM [6] was 4%. For the same compound, the remaining activity at 10 µM [7] was 10%, the remaining activity at 10 µM [8] was 32% and the remaining activity at 10 µM [9] was 89%. The remaining activity at 10 µM [10] was 12%, the remaining activity at 10 µM [11] was 90% and the remaining activity at 10 µM [12] was 69%. For the same compound, the remaining activity at 10 µM [13] was 58%, the remaining activity at 10 µM [14] was 56% and the remaining activity at 10 µM [15] was 14%. It also gave a remaining activity at 10 µM [16] of 76%, a remaining activity at 10 µM [17] of 37% and a remaining activity at 10 µM [18] of 104%. It also gave a remaining activity at 10 µM [19] of 31%, a remaining activity at 10 µM [20] of 99% and a remaining activity at 10 µM [21] of 16%. It also gave a remaining activity at 10 µM [22] of 73%, a remaining activity at 10 µM [23] of 93% and a remaining activity at 10 µM [24] of 37%. It also gave a remaining activity at 10 µM [25] of 41%, a remaining activity at 10 µM [26] of 22% and a remaining activity at 10 µM [27] of 69%. For the same compound, the remaining activity at 10 µM [28] was 30% and the “inhibition of TNFα-stimulated IκBα degradation” value [29] was “inhibited; also recorded: small effect”.
